Data set [1] can be described thus: Bioconversion of ketoprofen prodrugs in fresh human plasma.
Data set [2] in a line: Passive penetration across human epidermis skin in side-by-side diffusion cells. The settings on record: no electric current, 6 hours. The text has this:
The efficiency in anode iontophoresis delivery of KCE and that in cathode iontophoresis delivery of ketoprofen were compared with an in-vitro side-by-side diffusion cell study. […] The human cadaver epidermis skin was sandwiched between the two half cells with stratum corneum face the donor chamber. […] Phosphate buffer solution (0.15 M at pH 7.4) was placed in the receiver chamber. […]

Data set [3] can be described thus: In vivo rat study of iontophoresis delivery on dorsal back skin: tissue and plasma drug concentrations. Conditions: for Drug concentration in the skin: delivered drug (prodrug or ketoprofen); for Concentration of ketoprofen converted from the prodrug in the skin: number in bracket. The procedure: (§1) The anode iontophoresis of ketoprofen cationic prodrugs KCE, KME and cathode iontophoresis of ketoprofen were compared with an in vivo rat study for evaluation of drug penetration into deep tissues. […] A prodrug solution was loaded in the cell. A constant current of 0.4 mA/cm^2 for iontophoresis was applied for 6 hours. At the end of the iontophoresis delivery, the rats were euthanized. The skin of the application site (under the glass cell) was washed with water, tape stripped once to remove residue drug on skin, and then dissected with a biopsy punch for the tissue layers: epidermis and dermis layer (depth 0-3 mm), subcutaneous tissue (fat pad) (3-4 mm), shallow muscle layer (4-6 mm), and deep muscle (6-10 mm). The tissues from the contralateral site were dissected with the same method. In addition, the plasma blood samples were obtained right before the experiment (time 0) and each hour during the experiment. The drug concentrations in the tissue and plasma samples were analyzed with a HPLC.
as §1, with “cationic prodrugs and cathode” for “cationic prodrugs KCE, KME and cathode”, “ketoprofen were also compared with” for “ketoprofen were compared with”, “rat study at 0.4 mA/cm^2 for a shorter duration of 2 hours for evaluation” for “rat study for evaluation”, “applied for 2 hours. At” for “applied for 6 hours. At”
as §1, with “cationic prodrugs and cathode” for “cationic prodrugs KCE, KME and cathode”, “ketoprofen were also compared with” for “ketoprofen were compared with”, “rat study at 0.057 mA/cm^2 for a duration of 6 hours for evaluation” for “rat study for evaluation”, “current of 0.057 mA/cm^2 for” for “current of 0.4 mA/cm^2 for”, “with a HPLC” for “with a HPLC.”
KPE is a prodrug of ketoprofen but with two methyl groups on the nitrogen atom, instead of three methyl groups on the nitrogen atom like KCE and KME. KPE can be presented as a hydrochloride salt. […] Anode iontophoresis delivery of KPE in this aqueous solution at 0.4 mA/cm^2 for a shorter duration of 2 hour was also conducted with the in vivo rat study.

The subject of data set [4] is melanoma cell (A375). Briefly: In vitro cell viability assay on melanoma cell growth. The data set is classed as cell-based. Conditions: A375 cells, read-out: 50% inhibition concentration (IC50) on melanoma cell (A375) growth. The text has this:
The drug concentrations in the skin after the iontophoresis delivery of those prodrugs or their parent drug ketoprofen from different iontophoresis conditions are summarized in Table 2. The high drug concentration in the skin can be used for treatment of skin diseases including skin cancers such as melanoma. […] The ketoprofen concentrations in the skin from the iontophoresis delivery was not higher than its IC50 against the melanoma cell growth, but the KCE and KME concentrations in the skin from the anode iontophoresis delivery were higher than their IC50 against the melanoma cell growth. Thus, the anode iontophoresis of the prodrugs can provide high drug accumulation in the skin, and such high drug accumulation in the skin can be used for skin disease treatment.

Data set [5] is described as follows: In-vitro side-by-side diffusion cell study, iontophoresis across human epidermis skin. It is filed as in vitro ADME. From the text: The efficiency in anode iontophoresis delivery of KCE and that in cathode iontophoresis delivery of ketoprofen were compared with an in-vitro side-by-side diffusion cell study. […] The human cadaver epidermis skin was sandwiched between the two half cells with stratum corneum face the donor chamber. For anode iontophoresis of KCE, KCE chloride salt solution (26.6 μmol/ml) was placed in the donor cell. For cathode iontophoresis of ketoprofen (Kt), […] solution (26.6 μmol/ml) was placed in the donor cell. Phosphate buffer solution (0.15 M at pH 7.4) was placed in the receiver chamber. Constant current 0.2 mA was applied to the diffusion cell. The amount of drug penetrated through the skin was collected in the receive chamber and analyzed with a HPLC. The anode iontophoresis of the cationic prodrug KCE delivered 4 times more drug across the skin than that delivered by the cathode iontophoresis of ketoprofen (see FIG. 4A) from the in-vitro study.
Anode iontophoresis of the cationic ketoprofen prodrug KCE (26.6 μmol/ml) with the presence of phenylephrine (PE) (4.9 μmol/ml) in solution was evaluated with an in-vitro diffusion cell study across a human epidermis skin.

Data set [6] is described as follows: Iontophoresis delivery into hairless rat knee joint: tissue and plasma drug concentrations. It is filed as in vivo. Conditions: 0.4 mA/cm^2 for 20 min; 0.5-hour and 2-hour time points. On the procedure: Hairless rats were anaesthetized with isoflurane. A rubber disk shape applicator with a sponge that can hold 0.5 ml of the drug solution was used and a button Ag/AgCl electrode was used as current driving electrode. The delivery area is about 1.2 cm^2. After drug solution was loaded into the sponge, the applicator was placed on the knee cap skin and applied an electric current at 0.4 mA/cm^2 for 20 min. A return electrode was attached to the upper tail of the rat. After that, the skin was cleaned thoroughly with wet Kim wipes. The tissues (skin, muscle and joint) at the application site knee and also the contralateral site knee were collected at 30 min, 2 hr, 4 hr or 6 hr from the start of iontophoresis delivery. Three animals were used for each time point. Blood samples were also collected at appropriate time points. The tissue and blood samples were stored at −80° C. until further processing.

Data set [7] can be described thus: Bioconversion of ketoprofen prodrugs in fresh rat plasma.
For data set [8], the system named is knee arthritis pain model (monosodium iodoacetate). The experiment in a line: MIA knee osteoarthritis rat model treated with iontophoresis. The data set is classed as in vivo. The settings on record: 0.4 mA/cm^2 for 20 min on days 1, 2, 3 after MIA; versus iontophoresis of NaCl. On the procedure: A knee arthritis pain model was established by injection of 50 μl of 60 mg/ml monosodium iodoacetate (MIA) into the left hind knee joint of 12 hairless rats, and they were divided into three groups. The knee diameters of both hind knees were measured. The difference in knee diameters between the left knee and right knee was used as the indicator of the swelling (or inflammation) of the left knee. In addition, the weight bearing of each hind limb was also measured with a Linton incapacitance tester. The percentage of the weight bearing by the left leg was used as an indicator of the pain level in the knee. At 1 day, 2 days, 3 days after the injection of MIA, the left knee of the rats in group 1 was treated with iontophoresis of NaCl to the left hind knee at 0.4 mA/cm^2 for 20 min, group 2 treated with iontophoresis of Kt to the left hind knee at 0.4 mA/cm^2 for 20 min, and group 3 treated with iontophoresis of KCE to the left hind knee at 0.4 mA/cm^2 for 20 min. The knee diameter and weight bearing were measured at day 0 before the MIA injection, and also at day 1, 2, and 3 after the MIA injection but before the iontophoresis treatment. They were also measured at day 4, 6, and 10 after the MIA injection.

[9] abbreviates: iontophoresis 0.057 mA/cm^2 for 6 hrs.
[10] abbreviates: iontophoresis 0.4 mA/cm^2 for 2 hrs.
The mark [11] stands for this setting: iontophoresis 0.4 mA/cm^2 for 6 hrs.

Counter-ions that a name gives are not always drawn.

`CC(C(=O)OCC[N+](C)(C)C)c1cccc(C(=O)c2ccccc2)c1` (stereo not shown) [KCE, Ketoprofen choline ester chloride salt]: the “Bioconversion (half life) in human plasma” value in data set [1] is less than 2 min. Moreover, in data set [2], the “Passive penetration across human epidermis skin” value was “Almost no KCE chloride was penetrated across the human skin in 6 hours”. In addition, in data set [3] (0.057 mA/cm^2 for 6 hours), the “Plasma and contralateral tissue drug concentration” value is recorded as “initial lower plasma concentration, but reached a plasma concentration similar to that from iontophoresis of Kt at 6 hours”; the “Tissue drug concentrations / direct penetration at the application site” value is listed as “direct penetration into deeper tissues that is up into the shallow muscles”. In data set [3] (0.4 mA/cm^2 for 2 hours), the Plasma drug concentration entry was “lower than that from iontophoresis of ketoprofen” and the “Tissue drug concentrations / direct penetration at the application site” value is on record as “direct penetration into deeper tissues up into the deep muscles”. In data set [3] (0.4 mA/cm^2 for 6 hours), the “Drug in tissues at the contralateral site” value was “No prodrug was detected in the contralateral tissues”, the Plasma drug concentration result is recorded as “much lower than that from the iontophoresis of Kt” and the “Tissue drug concentrations / direct penetration at the application site” value is listed as “much higher concentration in the drug application site than the Kt concentration in the contralateral site”. Besides, in data set [3] (setting [9]), the “Drug concentration in the skin” value was 887 μmol per kilogram of skin and the “Concentration of ketoprofen converted from the prodrug in the skin” value (“Concentration of ketoprofen converted” below) is recorded as 905 μmol per kilogram of skin. Besides, in data set [3] (setting [10]), the “Drug concentration in the skin” value is 6719 μmol per kilogram of skin and the “Concentration of ketoprofen converted” value was 2996 μmol per kilogram of skin. For the same compound, in data set [3] (setting [11]), the “Drug concentration in the skin” value is on record as 25869 μmol per kilogram of skin and the “Concentration of ketoprofen converted” value is recorded as 13527 μmol per kilogram of skin. Further, in data set [4], the IC50 came to 2650 µM. For the same compound, in data set [5] (0.2 mA constant current, 26.6 μmol/ml donor, anode iontophoresis), the “Drug delivered across the skin relative to cathode iontophoresis of ketoprofen” value is on record as 4 times. In data set [5] (KCE 26.6 μmol/ml, PE 4.9 μmol/ml, 0.2 mA), the “Amount penetrated across the skin by anode iontophoresis, KCE alone versus KCE with phenylephrine” value is listed as “slightly higher than that with the PE in the solution”. In data set [6], the “Drug concentrations in the knee joint and surrounding muscle tissues” value was “higher drug concentrations in the knee joint and also surrounding muscle tissues than those from the cathode iontophoresis of Kt”. Moreover, in data set [7], the “Bioconversion (half life) in rat plasma” value turned out to be 8.6 min. In addition, in data set [8], the “Knee swelling (knee diameter difference left vs right)” value was “significant reduction of the knee swelling” and the “Weight bearing of the left leg (pain indicator)” value was “significant improvement in the weight bearing of the left leg”.
